From patent publication US9480627B2, “Long term bacteriostatic compounds and their use in restorative dental materials” (priority 2010, dated 2016)

Experiment: Storage stability in sealed container in 37 C oven for nine months
Conditions: nine month storage period
Excerpt: These ingredients were blended together until homogenous and were allowed to remain in a sealed container in a 37 C oven for nine months.

## Zinc pyrithione
  stability with acrylic dental adhesives (premature cure on storage): does not cure
